For the experiment, the target named is T1, PAR4 (Homo sapiens, UniProt Q96RI0).
T1 construct: expressed in transfected cells; host or cells: HEK293 PAR4 Clone 1.2A (BMS Arctic ID 383940)
T1 sequence (Q96RI0 18-385): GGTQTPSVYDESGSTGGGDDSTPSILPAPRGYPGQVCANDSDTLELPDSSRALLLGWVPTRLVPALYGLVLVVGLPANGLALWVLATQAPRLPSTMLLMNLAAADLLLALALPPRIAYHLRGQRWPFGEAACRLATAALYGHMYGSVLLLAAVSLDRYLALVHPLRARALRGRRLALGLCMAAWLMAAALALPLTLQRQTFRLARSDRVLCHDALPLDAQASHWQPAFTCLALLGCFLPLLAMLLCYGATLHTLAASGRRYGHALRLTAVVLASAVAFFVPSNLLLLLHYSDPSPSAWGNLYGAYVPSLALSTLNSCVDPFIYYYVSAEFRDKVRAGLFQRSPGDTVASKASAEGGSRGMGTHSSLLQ
Put plainly: PAR4 FLIPR assay (antagonism of agonist peptide-induced calcium mobilization). Type of experiment: cell-based. In outline:
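Antagonism was taken as block of calcium mobilization evoked by the agonist peptide H-Ala-Phe(4-F)-Pro-Gly-Trp-Leu-Val-Lys-Asn-[…]-NH2, added after 30 min room-temperature compound preincubation in dye-loaded PAR4-transfected HEK293 cells (endogenous PAR1). Fluorescence was read on FDSS, with compound addition alone used as the agonist counter-screen; values come from 11-point concentration-response curves.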
(Calcium flux is commonly read through the fluorescence of an indicator in the cells.)

Molecules are shown by their SMILES.

This note sets out measurements from patent US11932658B2 (BRISTOL-MYERS SQUIBB COMPANY, priority 2016, dated 2024).

As for `COc1cnc2c(-c3nc4ccc5c(c4s3)OC[C@H](COC(=O)Nc3cnc4[nH]ccc4c3)O5)cc(C)cc2n1` [Example 107, (R)-(2-(2-methoxy-7-methylquinoxalin-5-yl)-7,8-dihydro-[1,4]dioxino[2′,3′:3,4]benzo [1,2-d]thiazol-7-yl)methyl 1H-pyrrolo[2,3-b]pyridin-5-ylcarbamate], the IC50 (commonly the concentration that gives 50% inhibition) amounted to 1.7 nM.
As for `COc1cnc2c(-c3nc4ccc5c(c4s3)OC[C@H](COC(=O)Nc3cccnc3)O5)cc(C)cc2n1` [Example 108, (R)-(2-(2-methoxy-7-methylquinoxalin-5-yl)-7,8-dihydro-[1,4]dioxino[2′,3′:3,4]benzo[1,2-d]thiazol-7-yl)methyl pyridin-3-ylcarbamate], the figure is 1.8 nM; as for `COc1cnc2c(-c3nc4ccc5c(c4s3)OC[C@H](COC(=O)Nc3ccc(Br)nc3)O5)cc(C)cc2n1` [Example 109, (R)-(2-(2-methoxy-7-methylquinoxalin-5-yl)-7,8-dihydro-[1,4]dioxino[2′,3′:3,4]benzo[1,2-d]thiazol-7-yl)methyl (6-bromopyridin-3-yl)carbamate], 2.6 nM; as for `C=Cc1ccc(NC(=O)OC[C@H]2COc3c(ccc4nc(-c5cc(C)cc6nc(OC)cnc56)sc34)O2)cn1` [Example 110, (R)-(2-(2-methoxy-7-methylquinoxalin-5-yl)-7,8-dihydro-[1,4]dioxino[2′,3′:3,4]benzo[1,2-d]thiazol-7-yl)methyl (6-vinylpyridin-3-yl)carbamate], 1.6 nM.
In the case of `COc1cnc2c(-c3nc4ccc5c(c4s3)OC[C@H](COC(=O)Nc3ccc([C@H](O)CO)nc3)O5)cc(C)cc2n1` [Example 111, ((R)-2-(2-methoxy-7-methylquinoxalin-5-yl)-7,8-dihydro-[1,4]dioxino[2′,3′:3,4]benzo [1,2-d]thiazol-7-yl)methyl (6-((S)-1,2-dihydroxyethyl)pyridin-3-yl)carbamate], the IC50 was determined as 2.3 nM.
Turning to `COc1cnc2c(-c3nc4ccc5c(c4s3)OC[C@H](COC(=O)Nc3ccc(F)nc3)O5)cc(C)cc2n1` [Example 112, (R)-(2-(2-methoxy-7-methylquinoxalin-5-yl)-7,8-dihydro-[1,4]dioxino[2′,3′:3,4]benzo[1,2-d]thiazol-7-yl)methyl (6-fluoropyridin-3-yl)carbamate], the IC50 worked out at 7.1 nM.
Take `COc1cnc2c(-c3nc4ccc5c(c4s3)OC[C@H](COC(=O)Nc3cncc(C#N)c3)O5)cc(C)cc2n1` [Example 113, (R)-(2-(2-methoxy-7-methylquinoxalin-5-yl)-7,8-dihydro-[1,4]dioxino[2′,3′:3,4]benzo[1,2-d]thiazol-7-yl)methyl (5-cyanopyridin-3-yl)carbamate]: the IC50 was found to be 1.9 nM.
Take `COc1cnc2c(-c3nc4ccc5c(c4s3)OC[C@H](COC(=O)Nc3ccc(C(=O)N4CCOCC4)cc3)O5)cc(C)cc2n1` [Example 114, (R)-(2-(2-methoxy-7-methylquinoxalin-5-yl)-7,8-dihydro-[1,4]dioxino[2′,3′:3,4]benzo [1,2-d]thiazol-7-yl)methyl (4-(morpholine-4-carbonyl)phenyl)carbamate]: the IC50 stood at 1 nM.
For `COc1cnc2c(-c3nc4c(C)cc5c(c4s3)OCC(COC(=O)Nc3ccc(Cl)nc3)O5)cc(C)cc2n1` (centres unmarked) [Example 115, (2-(2-methoxy-7-methylquinoxalin-5-yl)-4-methyl-7,8-dihydro-[1,4]dioxino[2′,3′:3,4]benzo [1,2-d]thiazol-7-yl)methyl (6-chloropyridin-3-yl)carbamate], the IC50 was found to be 1.4 nM.
For the compound `COc1cnc2c(-c3nc4c(C)cc5c(c4s3)OCC(COC(=O)Nc3ccc(N(C)C)nc3)O5)cc(C)cc2n1` (centres unmarked) [Example 116, (2-(2-methoxy-7-methylquinoxalin-5-yl)-4-methyl-7,8-dihydro-[1,4]dioxino[2′,3′:3,4]benzo[1,2-d]thiazol-7-yl)methyl (6-(dimethylamino)pyridin-3-yl)carbamate], the IC50 was 3.4 nM.
For `COc1cnc2c(-c3nc4c(C)cc5c(c4s3)OCC(COC(=O)Nc3ccnc(-c4ccccc4)c3)O5)cc(C)cc2n1` (centres unmarked) [Example 117, (2-(2-methoxy-7-methylquinoxalin-5-yl)-4-methyl-7,8-dihydro-[1,4]dioxino[2′,3′:3,4]benzo[1,2-d]thiazol-7-yl)methyl (2-phenylpyridin-4-yl)carbamate], the IC50 amounted to 1.1 nM.
On to `COc1cnc2c(-c3nc4c(C)cc5c(c4s3)OCC(COC(=O)Nc3ccnc(F)c3)O5)cc(C)cc2n1` (centres unmarked) [Example 118, (2-(2-methoxy-7-methylquinoxalin-5-yl)-4-methyl-7,8-dihydro-[1,4]dioxino[2′,3′:3,4]benzo[1,2-d]thiazol-7-yl)methyl (2-fluoropyridin-4-yl)carbamate], for which the IC50 is 16 nM.
As for `COc1cnc2c(-c3nc4c(C)cc5c(c4s3)OCC(COC(=O)Nc3cnc(C)c(C)c3)O5)cc(C)cc2n1` (centres unmarked) [Example 119, (2-(2-methoxy-7-methylquinoxalin-5-yl)-4-methyl-7,8-dihydro-[1,4]dioxino[2′,3′:3,4]benzo[1,2-d]thiazol-7-yl)methyl (5,6-dimethylpyridin-3-yl)carbamate], the figure is 2.1 nM.
On to `COc1cnc2c(-c3nc4c(C)cc5c(c4s3)OCC(COC(=O)Nc3ccc(C)nc3)O5)cc(C)cc2n1` (centres unmarked) [Example 120, (2-(2-methoxy-7-methylquinoxalin-5-yl)-4-methyl-7,8-dihydro-[1,4]dioxino[2′,3′:3,4]benzo[1,2-d]thiazol-7-yl)methyl (6-methylpyridin-3-yl)carbamate], for which the IC50 was 0.9 nM.
As for `COc1cnc2c(-c3nc4c(C)cc5c(c4s3)OCC(COC(=O)Nc3ccc(Oc4ccccc4)nc3)O5)cc(C)cc2n1` (centres unmarked) [Example 121, (2-(2-methoxy-7-methylquinoxalin-5-yl)-4-methyl-7,8-dihydro-[1,4]dioxino [2′,3′:3,4]benzo[1,2-d]thiazol-7-yl)methyl (6-phenoxypyridin-3-yl)carbamate], the IC50 stood at 8.2 nM.
With `COc1cnc2c(-c3nc4c(C)cc5c(c4s3)OCC(COC(=O)Nc3cnc(F)c(C)c3)O5)cc(C)cc2n1` (centres unmarked) [Example 122, (2-(2-methoxy-7-methylquinoxalin-5-yl)-4-methyl-7,8-dihydro-[1,4]dioxino[2′,3′:3,4]benzo [1,2-d]thiazol-7-yl)methyl (6-fluoro-5-methylpyridin-3-yl)carbamate], the IC50 came to 2.5 nM.
Regarding `COc1cnc2c(-c3nc4c(C)cc5c(c4s3)OCC(COC(=O)Nc3ccc(O)nc3)O5)cc(C)cc2n1` (centres unmarked) [Example 123, (2-(2-methoxy-7-methylquinoxalin-5-yl)-4-methyl-7,8-dihydro-[1,4]dioxino[2′,3′:3,4]benzo [1,2-d]thiazol-7-yl)methyl (6-hydroxypyridin-3-yl)carbamate], the IC50 was 18 nM.
In the case of `COc1cnc2c(-c3nc4c(C)cc5c(c4s3)OCC(COC(=O)Nc3cncc(C)c3)O5)cc(C)cc2n1` (centres unmarked) [Example 124, (2-(2-methoxy-7-methylquinoxalin-5-yl)-4-methyl-7,8-dihydro-[1,4]dioxino[2′,3′:3,4]benzo[1,2-d]thiazol-7-yl)methyl (5-methylpyridin-3-yl)carbamate], the IC50 stood at 3.2 nM.
As to `COc1cnc2c(-c3nc4c(C)cc5c(c4s3)OCC(COC(=O)Nc3ccc(-c4ccccc4)nc3)O5)cc(C)cc2n1` (centres unmarked) [Example 125, (2-(2-methoxy-7-methylquinoxalin-5-yl)-4-methyl-7,8-dihydro-[1,4]dioxino[2′,3′:3,4]benzo[1,2-d]thiazol-7-yl)methyl (6-phenylpyridin-3-yl)carbamate], the IC50 came out at 35 nM.
Regarding `COc1cnc2c(-c3nc4c(C)cc5c(c4s3)OCC(COC(=O)Nc3cncc(-c4ccccc4)c3)O5)cc(C)cc2n1` (centres unmarked) [Example 126, (2-(2-methoxy-7-methylquinoxalin-5-yl)-4-methyl-7,8-dihydro-[1,4]dioxino[2′,3′:3,4]benzo[1,2-d]thiazol-7-yl)methyl (5-phenylpyridin-3-yl)carbamate], the concentration for half-maximal inhibition (IC50) came to 67 nM.
For the compound `COc1cnc2c(-c3nc4c(C)cc5c(c4s3)OCC(COC(=O)Nc3ccc(-c4cccs4)nc3)O5)cc(C)cc2n1` (centres unmarked) [Example 127, (2-(2-methoxy-7-methylquinoxalin-5-yl)-4-methyl-7,8-dihydro-[1,4]dioxino[2′,3′:3,4]benzo[1,2-d]thiazol-7-yl)methyl (6-(thiophen-2-yl)pyridin-3-yl) carbamate], the IC50 stood at 130 nM.
As for `COc1cnc2c(-c3nc4c(C)cc5c(c4s3)OCC(COC(=O)Nc3ccc(OCCN(C)C)nc3)O5)cc(C)cc2n1` (centres unmarked) [Example 128, (2-(2-methoxy-7-methylquinoxalin-5-yl)-4-methyl-7,8-dihydro-[1,4]dioxino[2′,3′:3,4]benzo[1,2-d]thiazol-7-yl)methyl (6-(2-(dimethylamino)ethoxy)pyridin-3-yl)carbamate], the IC50 came to 4 nM.
For the compound `COc1cnc2c(-c3nc4c(C)cc5c(c4s3)OCC(COC(=O)Nc3cnc4c(c3)ncn4C)O5)cc(C)cc2n1` (centres unmarked) [Example 129, (2-(2-methoxy-7-methylquinoxalin-5-yl)-4-methyl-7,8-dihydro-[1,4]dioxino[2′,3′:3,4]benzo[1,2-d]thiazol-7-yl)methyl (3-methyl-3H-imidazo [4,5-b]pyridin-6-yl)carbamate], the IC50 was found to be 1.6 nM.
